Consider six compounds from ChEMBL document CHEMBL1201862, “PubChem BioAssay data set” (2004).

Active and inactive are the calls of the source. A value given as a limit tells only on which side of the number the result lay.

Experiment [1] concerns the target Sphingosine 1-phosphate receptor 2 (Homo sapiens, UniProt O95136). Description: Dose Response Cell Based Assay for Antagonists of the S1P2 Receptor. [Related pubchem assays: 856, 736 ]. The experiment is classed as functional.
In the next experiment the target is Galanin receptor type 2 (Homo sapiens, UniProt O43603). The experiment can be described thus: Dose Response cell-based high-throughput screening assay to identify antagonists of galanin receptor 2 (GALR2). [Related pubchem assays: 828, 866 ]. Format: functional.
A further experiment addresses Protein Tat (Human immunodeficiency virus type 1 group M subtype B (isolate HXB2)(HIV-1), UniProt P04608). The experiment is classed as functional.
The nature of experiment [2]: cytotoxicity in HEK-293T cells, dose response, cytotoxicity control for BCR NF-kB inhibitor project, luminescence, B-cell screen hits (AID 489021).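 Note: HEK-293T cells carrying an NF-kB luciferase reporter; cells exposed to compound for about 14 hours before viability readout.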 The experiment is classed as functional, cell-based.
In experiment [3] the target is T1, COUP transcription factor 2 (Homo sapiens, UniProt P24468).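 Note: HEK293 cells transiently cotransfected with COUP-TFII expression vector and reporter; luciferase reporter luminescence driven by COUP-TFII from the pX2-168 reporter plasmid.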
T1 sequence (P24468 whole entry): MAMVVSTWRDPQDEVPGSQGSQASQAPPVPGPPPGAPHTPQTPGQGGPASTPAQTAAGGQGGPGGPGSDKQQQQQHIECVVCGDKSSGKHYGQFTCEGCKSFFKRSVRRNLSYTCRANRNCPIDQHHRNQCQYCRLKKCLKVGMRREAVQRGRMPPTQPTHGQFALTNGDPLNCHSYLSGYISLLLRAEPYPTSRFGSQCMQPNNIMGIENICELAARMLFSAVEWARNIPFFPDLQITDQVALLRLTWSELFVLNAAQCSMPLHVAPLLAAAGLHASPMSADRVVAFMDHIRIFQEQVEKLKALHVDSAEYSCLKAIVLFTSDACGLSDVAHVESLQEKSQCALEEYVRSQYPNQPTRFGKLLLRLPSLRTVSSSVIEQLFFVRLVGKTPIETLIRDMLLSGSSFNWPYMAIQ
The experiment can be described thus: Luminescence-based cell-based high throughput dose response assay to identify inhibitors of COUP-TFII (NR2F2). The experiment is classed as functional.

Experiment [4] addresses Mitogen-activated protein kinase 10 (Homo sapiens, UniProt P53779). Description: Dose response biochemical screening assay for inhibitors of c-Jun N-Terminal Kinase 3 (JNK3). [Related pubchem assays: 746 ].
Experiment [5] is described as follows: HEp-2 cell cytotoxicity, dose response, cytotoxicity control for RSV inhibitor project, HTS (AID 2410). To be noted: human respiratory syncytial virus. Format: functional.
The next experiment deals with Genome polyprotein (Hepatitis C virus, UniProt Q2Q167). The experiment can be described thus: HCV core protein dimerization inhibitors, dose response, biochemical, TR-FRET (AID 2159).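 Note: blocks dimerization of HCV core protein measured by TR-FRET between tagged core106 pairs.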 More on the design: species or system Hepacivirus hominis. (In TR-FRET formats the signal depends on donor and acceptor labels being close together.)
Experiment [6] has as its target Glucose-6-phosphate 1-dehydrogenase (Homo sapiens, UniProt P11413). The experiment can be described thus: human G6PD enzyme inhibitors, dose response, selectivity assay for P. falciparum G6PD inhibitor project, biochemical, fluorescence (AID 504792). The experiment is classed as functional.
The next experiment deals with Major prion protein (Homo sapiens, UniProt P04156). Format: functional, cell-based.

On to `O=C(Nc1ccc(F)cc1)c1sccc1S(=O)(=O)Cc1cccc(C(F)(F)F)c1`, for which, in experiment [1], the IC50 is given as 18.4 µM (not active).
Take `O=C(Nc1ccc2[nH]c(-c3cccnc3)nc2c1)C12CC3CC(CC(C3)C1)C2`: the IC50 at Galanin receptor type 2 is > 42 µM (not active).
Regarding `CCOC(=O)C1=C(O)/C(=C/c2ccc(CNC(=O)C(=O)Nc3ccc(C)cc3)o2)N=C1C`, the 50% inhibitory concentration (IC50) at Protein Tat is 47.8 µM (inconclusive).
`Cc1cc(C)c(S(=O)(=O)NCc2ccncc2)c(C)c1`: the half-inhibitory concentration (IC50) against Galanin receptor type 2 was > 42 µM (not active); in experiment [2], > 80 µM (inactive); in experiment [3], 4.96 µM (active).
For `Cc1cccc(-n2ncc3c(NCc4cccs4)ncnc32)c1`, in experiment [4], the half-maximal inhibitory concentration (IC50) is 72 µM (not active).
Consider `Brc1cc2[nH]cnc2c2ccccc12`, for which the CC50 in [5] was 37.8 µM (active). The IC50 is > 49.8 µM (not active) against Genome polyprotein, > 80 µM (inactive) in experiment [6], 5.96 µM (active) on Major prion protein and > 138 µM (inactive) in the experiment “cells”.

Usually IC50 stands for the midpoint of a concentration-inhibition curve. A word on the CC50: it is the concentration giving 50% cytotoxicity.
